Experiments:
MAGL [1] = molecular target: MAGL (Homo sapiens (Human), UniProt Q99685); test: In vitro competitive activity-based protein profiling (human proteomes); format: biochemical; conditions: human proteome; for inhibition at 1 µM: 1 μM inhibitor, read-out: MAGL % inh. 1 μM (human)
Experimental: In Vitro Competitive Activity-Based Protein Profiling
Proteomes (mouse brain membrane fraction or cell lysates for mouse assays; human prefrontal cortex or cell membrane fractions for human assays) (50 μL, 1.0 mg/mL total protein concentration) were preincubated with varying concentrations of inhibitors at 37° C. After 30 min, FP—Rh or HT-01 (1.0 μL, 50 μM in DMSO) was added and the mixture was incubated for another 30 min at 37° C. Reactions were quenched with SDS loading buffer (15 μL—4×) and run on SDS-PAGE.

MAGL [2] = molecular target: MAGL (Mus musculus (Mouse), UniProt O35678); test: Mouse brain proteomes from inhibitor treated mice (oral gavage, ABPP analysis); format: in vivo; conditions: 5 mg/kg oral gavage, 4 h after administration, read-out: MAGL % inh. 5 mg/kg (mouse)
Sequence of MAGL (Mus musculus (Mouse), UniProt O35678) (O35678 whole entry): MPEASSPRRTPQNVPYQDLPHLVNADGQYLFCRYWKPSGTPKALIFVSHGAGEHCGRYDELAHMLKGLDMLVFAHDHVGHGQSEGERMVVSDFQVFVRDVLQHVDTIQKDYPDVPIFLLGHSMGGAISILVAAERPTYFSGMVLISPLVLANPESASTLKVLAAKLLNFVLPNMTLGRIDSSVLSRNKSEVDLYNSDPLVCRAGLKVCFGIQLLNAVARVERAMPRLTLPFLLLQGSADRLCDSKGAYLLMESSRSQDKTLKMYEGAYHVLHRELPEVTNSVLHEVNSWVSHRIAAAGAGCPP
Experimental: Preparation of Mouse Brain Proteomes from Inhibitor Treated Mice
Inhibitors were administered to wild-type C57Bl/6J by oral gavage in a vehicle of polyethylene glycol.

Sequence of MAGL (Homo sapiens (Human), UniProt Q99685) (Q99685 whole entry): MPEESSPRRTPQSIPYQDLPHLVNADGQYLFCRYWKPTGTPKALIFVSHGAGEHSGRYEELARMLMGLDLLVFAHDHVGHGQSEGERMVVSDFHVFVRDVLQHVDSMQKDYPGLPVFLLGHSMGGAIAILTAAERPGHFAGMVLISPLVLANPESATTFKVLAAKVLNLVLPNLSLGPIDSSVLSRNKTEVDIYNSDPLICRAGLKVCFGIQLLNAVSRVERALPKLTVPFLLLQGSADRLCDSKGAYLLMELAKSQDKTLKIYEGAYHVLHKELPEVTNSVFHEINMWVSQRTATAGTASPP

Row | inhibition at 1 µM (MAGL [1]) [%] | IC50 (MAGL [1]) [nM] | inhibition at 5 mg/kg (MAGL [2]) [%] | inhibition at 10 µM (MAGL [1]; 10 μM inhibitor, read-out: MAGL % inh. (human) @ 10 μM) [%] | Compound
1 | > 75 | < 50 | – | – | CC(C)(Oc1cc(CN2CCN(C(=O)OC(C(F)(F)F)C(F)(F)F)CC2)cc(C(F)(F)F)c1)C(=O)O [Example 47, 2-(3-((4-(((1,1,1,3,3,3-Hexafluoropropan-2-yl)oxy)carbonyl)piperazin-1-yl)methyl)-5-(trifluoromethyl)phenoxy)-2-methylpropanoic acid]
2 | > 75 | < 50 | 50 to 75 | – | Cc1ccc(CN2CCN(C(=O)OC(C(F)(F)F)C(F)(F)F)CC2)c(OC(C)(C)C(=O)O)c1Cl [Example 17, 2-(2-Chloro-6-((4-(((1,1,1,3,3,3-hexafluoropropan-2-yl)oxy)carbonyl)piperazin-1-yl)methyl)-3-methylphenoxy)-2-methylpropanoic acid]
3 | > 75 | < 50 | – | – | O=C(O)COc1cc(CN2CCN(C(=O)OC(C(F)(F)F)C(F)(F)F)CC2)cc(OC(F)(F)F)c1 [Example 44, 2-(3-((4-(((1,1,1,3,3,3-Hexafluoropropan-2-yl)oxy)carbonyl)piperazin-1-yl)methyl)-5-(trifluoromethoxy)phenoxy) acetic acid]
4 | > 75 | – | – | – | CC(OC(=O)C(C)C)OC(=O)C(C)(C)Oc1cc(C(F)(F)F)ccc1CN1CCN(C(=O)OC(C(F)(F)F)C(F)(F)F)CC1 (stereo not drawn) [Example 13, 1,1,1,3,3,3-Hexafluoropropan-2-yl 4-(2-((1-(1-(isobutyryloxy)ethoxy)-2-methyl-1-oxopropan-2-yl)oxy)-4-(trifluoromethyl)benzyl)piperazine-1-carboxylate]
5 | > 75 | < 50 | 0 to 25 | – | CC(C)(Oc1cc(C(F)(F)F)ccc1CN1CCN(C(=O)OC(C(F)(F)F)C(F)(F)F)CC1)C(=O)NS(=O)(=O)C1CC1 [Example 6, 1,1,1,3,3,3-Hexafluoropropan-2-yl 4-(2-((1-(cyclopropanesulfonamido)-2-methyl-1-oxopropan-2-yl)oxy)-4-(trifluoromethyl)benzyl)piperazine-1-carboxylate]
6 | > 75 | < 50 | – | – | CC(C)(Oc1cc(C#N)ccc1CN1CCN(C(=O)OC(C(F)(F)F)C(F)(F)F)CC1)C(=O)O [Example 26, 2-(5-Cyano-2-((4-(((1,1,1,3,3,3-hexafluoropropan-2-yl)oxy)carbonyl)piperazin-1-yl)methyl)phenoxy)-2-methylpropanoic acid]
7 | > 75 | < 50 | > 75 | – | CC(C)(COc1cc(C(F)(F)F)ccc1CN1CCN(C(=O)OC(C(F)(F)F)C(F)(F)F)CC1)C(=O)O [Example 4, 3-(2-((4-(((1,1,1,3,3,3-Hexafluoropropan-2-yl)oxy)carbonyl)piperazin-1-yl)methyl)-5-(trifluoromethyl)phenoxy)-22-dimethylpropanoic acid]
8 | 50 to 75 | – | – | – | O=C(O)COc1c(F)cccc1CN1CCN(C(=O)OC(C(F)(F)F)C(F)(F)F)CC1 [Example 11, 2-(2-Fluoro-6-((4-(((1,1,1,3,3,3-hexafluoropropan-2-yl)oxy)carbonyl)piperazin-1-yl)methyl)phenoxy)acetic acid]
9 | > 75 | – | – | – | CCOC(=O)OC(C)OC(=O)C(C)(C)Oc1cc(C(F)(F)F)ccc1CN1CCN(C(=O)OC(C(F)(F)F)C(F)(F)F)CC1 (stereo not drawn) [Example 12, 1,1,1,3,3,3-Hexafluoropropan-2-yl 4-(2-((1-(1-((ethoxycarbonyl)oxy)ethoxy)-2-methyl-1-oxopropan-2-yl)oxy)-4-(trifluoromethyl)benzyl)piperazine-1-carboxylate]
10 | > 75 | – | – | – | C[C@@H](Oc1cc(C#N)ccc1CN1CCN(C(=O)OC(C(F)(F)F)C(F)(F)F)CC1)C(=O)O [Example 45, (R)-2-(5-Cyano-2-((4-(((1,1,1,3,3,3-hexafluoropropan-2-yl)oxy)carbonyl)piperazin-1-yl)methyl)phenoxy) propanoic acid]
11 | > 75 | < 50 | > 75 | – | CC(C)(Oc1c(CN2CCN(C(=O)OC(C(F)(F)F)C(F)(F)F)CC2)cccc1C(F)(F)F)C(=O)O [Example 2, 2-(2-((4-(((1,1,1,3,3,3-Hexafluoropropan-2-yl)oxy)carbonyl)piperazin-1-yl)methyl)-6-(trifluoromethyl)phenoxy)-2-methylpropanoic acid]
12 | > 75 | < 50 | > 75 | – | Cc1ccc(CN2CCN(C(=O)OC(C(F)(F)F)C(F)(F)F)CC2)c(OCC(C)(C)C(=O)O)c1F [Example 48, 3-(2-Fluoro-6-((4-(((1,1,1,3,3,3-hexafluoropropan-2-yl)oxy)carbonyl)piperazin-1-yl)methyl)-3-methylphenoxy)-2,2-dimethylpropanoic acid]
13 | > 75 | < 50 | > 75 | – | CC(C)(COc1cc(CN2CCN(C(=O)OC(C(F)(F)F)C(F)(F)F)CC2)cc(C(F)(F)F)c1)C(=O)O [Example 5, 3-(3-((4-(((1,1,1,3,3,3-Hexafluoropropan-2-yl)oxy)carbonyl)piperazin-1-yl)methyl)-5-(trifluoromethyl)phenoxy)-2,2-dimethylpropanoic acid]
14 | > 75 | – | – | – | CC(C)OC(=O)OC(C)OC(=O)C(C)(C)Oc1cc(C(F)(F)F)ccc1CN1CCN(C(=O)OC(C(F)(F)F)C(F)(F)F)CC1 (stereo not drawn) [Example 51, 1,1,1,3,3,3-Hexafluoropropan-2-yl 4-(2-((1-(1-((isopropoxycarbonyl)oxy)ethoxy)-2-methyl-1-oxopropan-2-yl)oxy)-4-(trifluoromethyl)benzyl) piperazine-1-carboxylate]
15 | – | – | – | > 75 | COc1ccc(OC(C)(C)C(=O)O)cc1CN1CCN(C(=O)OC(C(F)(F)F)C(F)(F)F)CC1 [Example 35, 2-(3-((4-(((1,1,1,3,3,3-Hexafluoropropan-2-yl)oxy)carbonyl)piperazin-1-yl)methyl)-4-methoxyphenoxy)-2-methylpropanoic acid]
16 | > 75 | – | – | – | CCOC(=O)C(C)(C)Oc1cc(C(F)(F)F)ccc1CN1CCN(C(=O)OC(C(F)(F)F)C(F)(F)F)CC1 [Example 50, 1,1,1,3,3,3-Hexafluoropropan-2-yl 4-(2-((1-ethoxy-2-methyl-1-oxopropan-2-yl)oxy)-4-(trifluoromethyl)benzyl) piperazine-1-carboxylate]
17 | > 75 | – | – | – | C[C@H](Oc1cc(C#N)ccc1CN1CCN(C(=O)OC(C(F)(F)F)C(F)(F)F)CC1)C(=O)O [Example 46, (S)-2-(5-Cyano-2-((4-(((1,1,1,3,3,3-hexafluoropropan-2-yl)oxy)carbonyl)piperazin-1-yl)methyl)phenoxy) propanoic acid]
18 | > 75 | – | – | – | CC(C)(C)C(=O)OCOC(=O)C(C)(C)Oc1cc(C(F)(F)F)ccc1CN1CCN(C(=O)OC(C(F)(F)F)C(F)(F)F)CC1 [Example 49, 1,1,1,3,3,3-Hexafluoropropan-2-yl 4-(2-((2-methyl-1-oxo-1-((pivaloyloxy)methoxy)propan-2-yl)oxy)-4-(trifluoromethyl)benzyl) piperazine-1-carboxylate]
19 | > 75 | < 50 | > 75 | – | CC(C)(Oc1cc(C(F)(F)F)ccc1CN1CCN(C(=O)OC(C(F)(F)F)C(F)(F)F)CC1)C(=O)O [Example 3, 2-(2-((4-(((1,1,1,3,3,3-Hexafluoropropan-2-yl)oxy)carbonyl)piperazin-1-yl)methyl)-5-(trifluoromethyl)phenoxy)-2-methylpropanoic acid]
20 | > 75 | < 50 | 0 to 25 | – | CC(C)(Oc1cc(Cl)ccc1CN1CCN(C(=O)OC(C(F)(F)F)C(F)(F)F)CC1)C(=O)O [Example 1, 2-(5-Chloro-2-((4-(((1,1,1,3,3,3-hexafluoropropan-2-yl)oxy)carbonyl)piperazin-1-yl)methyl)phenoxy)-2-methylpropanoic acid]

From US11214557B2, “MAGL inhibitors” (H. Lundbeck A/S, priority 2018, dated 2022)
